Columns and labels:
[1] = test system: HT-29 human colon cancer cells; experiment: HT-29 colon tumor growth in CD-1 nude mice; type: in vivo; conditions: SEQ ID NO:1 10 mg/kg every other day
Experimental: A. HT-29 human colon cancer cells (3×10^6 cells in 100 μl of PBS) were subcutaneously injected into the right flank of 6-7 weeks old female CD-1 nude mice. After the size of tumor reached an approximate volume of 50 mm^3, 4 days post tumor cell injection, SEQ ID NO:1 was administered by bolus infusion into the tail vein every other day at 10 mg/kg. Control animals received saline alone for the same period. Antitumor effect of SEQ ID NO:1 was further compared to that of mitomycin C alone or that of SEQ ID NO:1 in combination with mitomycin C. Mitomycin C was administered intravenously at days 4, 11 and 18 with a dose of 3.5 mg/kg/week, one hour after the treatments with SEQ ID NO:1. All treatments were stopped at day 22. A day after the last treatment, tumors were excised from the animals and their weights were measured (FIG. 13A). […] The delay in tumor growth achieved with SEQ.
B. HT-29 human colon cancer cells (3×10^6 cells in 100 μl of PBS) were subcutaneously injected into the right flank of 5-6 week old female CD-1 nude mice. After the size of tumor reached an approximate volume of 100 mm^3, 7 days post tumor cell injection, SEQ ID NO:1 was administered by bolus infusion into the tail vein every other day at 10 mg/kg. Control animals received saline alone for the same period. Antitumor effect of SEQ ID NO:1 was further compared to that of CPT-11 alone or that of SEQ ID NO:1 in combination with CPT-11. CPT-11 was administered intraperitoneally for 5 days in a row from day 7-12 with a dose of 20 mg/kg in 100 μl saline. All treatments were stopped at day 32. A day after the last treatment, tumors were excised from the animals and their weights were measured (FIG. 13B).

[2] = test system: MDA-CDDP-S4 human in vivo-selected Cisplatin-resistant breast adenocarcinoma cells; experiment: Cisplatin-resistant breast adenocarcinoma MDA-CDDP-S4 growth in SCID mice; conditions: SCID mice, fat pad; SEQ ID NO:1 10 mg/kg every other day; Cisplatin 4 mg/kg, Taxol 10 mg/kg i.v. weekly for three weeks
Experimental: MDA-CDDP-S4 human in vivo-selected Cisplatin-resistant breast adenocarcinoma cells MDA231/CDDPs4) (4×10^6 cells in 100 μl of PBS) were injected into the fat pad (inside of right leg) of 6-7 weeks old female SCID mice. After the size of tumor reached an approximate volume of 100 mm^3, 7-9 days post tumor cell injection, SEQ ID NO:1 was administered by bolus infusion into the tail vein every other day at 10 mg/kg. Control animals received saline alone for the same period. Antitumor effect of SEQ ID NO:1 was further compared to that of Cisplatin or Taxol alone (FIG. 14A) and in combination as indicated in the FIGS. 14B, 14C and 14D. Cisplatin was administered intravenously once a week for three weeks at a dose of 4 mg/kg. Taxol was administered intravenously once a week for three weeks at a dose of 10 mg/kg. Antitumor activities were estimated by the inhibition of tumor volume, which was measured with caliper and each point represents mean tumor volume calculated from 10 animals per experimental group (FIG. 14C). At the end of the study animals were sacrificed, tumor weights taken and mean tumor weights are indicated. […] As expected, treatment with Cisplatin during the same period was ineffective against Cisplatin-resistant tumor.

[3] = test system: MDA-MB435-To.1 human Taxol-resistant breast adenocarcinoma cells; experiment: Taxol-resistant breast adenocarcinoma MDA-MB435-To.1 growth in SCID mice; type: in vivo
Experimental: MDA-MB435-To.1 human Taxol-resistant breast adenocarcinoma cells (4×10^6 cells in 100 μl of PBS) were injected into the fat pad (inside of right leg) of 6-7 weeks old female SCD mice. After the size of tumor reached an approximate volume of 100 mm^3, 20 days post tumor cell injection, SEQ ID NO:1 was administered by bolus infusion into the tail vein every other day at 10 mg/kg 15 times. Control animals received saline alone for the same period. Antitumor effect of SEQ ID NO:1 was further compared to that of Cisplatin or Taxol alone (FIG. 15A). Cisplatin was administered intravenously once a week for four weeks at a dose of 4 mg/kg. Taxol was administered intravenously once a week for four weeks at a dose of 20 mg/kg. Antitumor activities were estimated by the inhibition of tumor volume, which was measured with caliper (FIG. 15B). Each point represents mean tumor volume calculated from 9-10 animals per experimental group. […] As expected, treatment with Taxol during the same period was ineffective against Taxol-resistant tumor.
MDA-MB435-To.1 human Taxol-resistant breast adenocarcinoma cells (4×10^6 cells in 100 μl of PBS) were injected into the fat pad (inside of right leg) of 6-7 weeks old female CB-17 SCID mice. After the size of tumor reached an approximate volume of 100 mm^3, 17 days post tumor cell injection, SEQ ID NO:1 was administered by bolus infusion into the tail vein every other day at 10 mg/kg. Control animals received saline alone for the same period. Antitumor effect of SEQ ID NO:1 was compared to that of Cisplatin alone and in combination. Cisplatin was administered intravenously once a week for four weeks at a dose of 4 mg/kg. Antitumor activities were estimated by the inhibition of tumor volume, which was measured with caliper (FIG. 15B). Each point represents mean tumor volume calculated from 10 animals per experimental group. At the end of the study the animals were sacrificed and tumors weighed (FIG. 15C).

[4] = test system: Human taxol-resistant promyelocytic leukemia cells (HL-60); experiment: Taxol-resistant promyelocytic leukemia (HL-60) growth in SCID mice; type: in vivo; conditions: SEQ ID NO:1 10 mg/kg i.v. every other day, taxol 10 mg/kg i.p. once a week
Experimental: Human taxol-resistant promyelocytic leukemia cells (HL-60) (7×10^6 cells in 100 μl of PBS) were injected into the right flank of 6-7 weeks old female SCID mice. After the size of tumor reached an approximate volume of 100 mm^3, 10 days post tumor cell injection, SEQ ID NO:1 was administered by bolus infusion into the tail vein every other day at 10 mg/kg. Control animals received saline alone for the same period. The anti-tumor effect of SEQ ID NO:1 was further compared to that of taxol. Taxol was administered i.p. once a week at a dose of 10 mg/kg. Anti-tumor activity was estimated by the inhibition of tumor volume, which was measured with caliper (FIG. 17A). Each point represents mean tumor volume calculated from 10 animals per experimental group. In addition animals were sacrificed and tumor weights taken at the end of the study.

[5] = test system: DU145 human prostatic cancer cells; experiment: DU145 prostate tumor growth in SCID mice; type: in vivo
Experimental: DU145 human prostatic cancer cells (1×10^7 cells in 100 μl of PBS) were subcutaneously injected into the right flank of 6-7 week old male SCID mice. After the size of the tumors reached an approximate volume of 50 mm^3, 13 days post tumor cell injection, SEQ ID NO:1 was administered by bolus infusion into the tail vein every other day at 10 mg/kg. Control animals received saline alone for the same period. Treatments lasted for 30 days thereafter. Antitumor activities were estimated by the inhibition of tumor volume, which was measured with a caliper on nine different occasions over 30-day period. Each point represents mean tumor volume calculated from 5 animals per experimental group.
In both experiments, DU145 human prostatic cancer cells (1×10^7 cells in 100 μl of PBS) were subcutaneously injected into the right flank of 6-7 weeks old male SCID mice. After the size of tumor reached an approximate volume of 50 mm^3, 13 (upper panel) or 11 (lower panel) days post tumor cell injection, SEQ ID NO:1 was administered by bolus infusion into the tail vein every other day at 10 mg/kg 15 times (upper panel) or 14 times (lower panel), respectively. Control animals received saline alone for the same period. Antitumor effect of SEQ ID NO:1 was further compared to that of mitoxantrone (novantrone®) alone or in combination. Mitoxantrone was administered intravenously once at the beginning of the treatments at a dose of 2 mg/kg (upper panel) or once a week for four weeks at a reduced dose of 0.8 mg/kg (lower panel). All treatments were stopped at day 42 (upper panel) or 38 (lower panel), respectively. A day after the last treatment, tumors were excised from the animals and their weights were measured.

[6] = first experiment, start 20 days post injection, SEQ ID NO:1 10 mg/kg 15 times, Cisplatin 4 mg/kg, Taxol 20 mg/kg weekly for four weeks

## CCc1c2c(nc3ccc(OC(=O)N4CCC(N5CCCCC5)CC4)cc13)-c1cc3c(c(=O)n1C2)COC(=O)[C@]3(O)CC [CPT-11, Irinotecan, reference compound]
[1]; FIG. 13B, CPT-11 20 mg/kg i.p. 5 days, stopped day 32
  tumor weight / tumor growth: inhibitory effects

## N.N.[Cl][Pt][Cl] [Cisplatin, reference compound]
[2]
  tumor weight / tumor growth: ineffective
[3]; [6]
  tumor weight / tumor growth: inhibitory effects
[3]; second experiment, CB-17 SCID mice, start 17 days post injection, SEQ ID NO:1 10 mg/kg every other day, Cisplatin 4 mg/kg weekly
  tumor weight / tumor growth: inhibitory effects

## CC(=O)O[C@H]1C(=O)[C@@]2(C)[C@H]([C@H](OC(=O)c3ccccc3)[C@]3(O)C[C@H](OC(=O)[C@H](O)[C@@H](NC(=O)c4ccccc4)c4ccccc4)C(C)=C1C3(C)C)[C@]1(OC(C)=O)CO[C@@H]1C[C@@H]2O [Taxol, Paclitaxel, reference compound]
[4]
  tumor growth / tumor weight: no effect on tumor growth or weight
[2]
  tumor weight / tumor growth: inhibitory effects
[3]; [6]
  tumor weight / tumor growth: ineffective

## CO[C@@]12[C@H](COC(N)=O)C3=C(C(=O)C(C)=C(N)C3=O)N1C[C@@H]1N[C@@H]12 [mitomycin C, reference compound]
[1]; FIG. 13A, mitomycin C 3.5 mg/kg/week i.v., stopped day 22
  tumor weight / tumor growth: inhibitory effects

## O=C1c2c(O)ccc(O)c2C(=O)c2c(NCCNCCO)ccc(NCCNCCO)c21 [mitoxantrone, reference compound]
[5]; lower panel FIG. 2, SEQ ID NO:1 10 mg/kg every other day 14 times, mitoxantrone 0.8 mg/kg once a week for four weeks
  tumor weight / tumor growth: delay of tumor growth
[5]; upper panel FIG. 2, SEQ ID NO:1 10 mg/kg every other day 15 times, mitoxantrone 2 mg/kg i.v. once, vs saline
  tumor weight / tumor growth: inhibitory effects
